In patent publication US5935958A, “Muscarinic antagonists” (Schering Corporation, priority 1997, dated 1999):

Tests used:
[1] = target: T1, cloned human m2 muscarinic receptor (Homo sapiens, UniProt P08172); assay: Muscarinic binding, inhibition of 3H-QNB binding, m2; conditions: for m1/m2 (Ki ratio): Ki for m1 receptors divided by Ki for m2 receptors, higher ratio = greater m2 selectivity; for m4/m2 (Ki ratio): Ki for m4 divided by Ki for m2; for m1/m2 and m4/m2 ratios, in words: tests reported in Table 1
T1 construct: expressed in transfected cells; host or cells: CHO (stably transfected), membranes
T1 sequence (P08172 1-466): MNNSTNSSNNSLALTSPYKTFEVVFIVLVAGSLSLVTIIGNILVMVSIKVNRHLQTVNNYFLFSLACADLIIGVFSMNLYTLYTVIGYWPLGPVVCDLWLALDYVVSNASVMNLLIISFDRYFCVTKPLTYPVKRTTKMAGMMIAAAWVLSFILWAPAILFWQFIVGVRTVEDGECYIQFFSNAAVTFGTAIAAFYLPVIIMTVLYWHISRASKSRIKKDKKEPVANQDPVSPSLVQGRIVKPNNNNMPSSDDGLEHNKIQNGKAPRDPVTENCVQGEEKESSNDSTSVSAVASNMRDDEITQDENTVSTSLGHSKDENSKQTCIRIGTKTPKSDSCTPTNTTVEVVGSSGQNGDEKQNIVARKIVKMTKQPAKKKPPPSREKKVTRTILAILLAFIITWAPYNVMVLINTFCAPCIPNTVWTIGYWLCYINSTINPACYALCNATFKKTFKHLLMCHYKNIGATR

[2] = target: T2, cloned human m1 muscarinic receptor (Homo sapiens, UniProt P11229); assay: Muscarinic binding, inhibition of 3H-QNB binding, m1; conditions: CHO cell membranes, 25° C., 90 minutes
T2 construct: expressed in transfected cells; host or cells: CHO (stably transfected), membranes
T2 sequence (P11229 1-460): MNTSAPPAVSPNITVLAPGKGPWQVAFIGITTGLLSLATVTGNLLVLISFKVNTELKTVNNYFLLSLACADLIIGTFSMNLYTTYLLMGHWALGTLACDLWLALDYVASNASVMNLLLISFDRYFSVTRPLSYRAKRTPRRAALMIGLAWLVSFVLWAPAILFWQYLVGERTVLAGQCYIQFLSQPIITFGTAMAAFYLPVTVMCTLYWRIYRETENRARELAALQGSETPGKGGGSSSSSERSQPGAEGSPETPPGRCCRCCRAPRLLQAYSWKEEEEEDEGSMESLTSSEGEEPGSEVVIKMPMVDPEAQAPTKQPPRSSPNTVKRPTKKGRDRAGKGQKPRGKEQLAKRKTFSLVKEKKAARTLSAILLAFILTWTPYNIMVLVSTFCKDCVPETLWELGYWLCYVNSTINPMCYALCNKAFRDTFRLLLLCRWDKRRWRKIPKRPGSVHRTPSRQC

[3] = target: T3, cloned human m4 muscarinic receptor (Homo sapiens, UniProt P08173); assay: Muscarinic binding, inhibition of 3H-QNB binding, m4; conditions: CHO cell membranes, 25° C., 90 minutes
T3 construct: expressed in transfected cells; host or cells: CHO (stably transfected), membranes
T3 sequence (P08173 1-479): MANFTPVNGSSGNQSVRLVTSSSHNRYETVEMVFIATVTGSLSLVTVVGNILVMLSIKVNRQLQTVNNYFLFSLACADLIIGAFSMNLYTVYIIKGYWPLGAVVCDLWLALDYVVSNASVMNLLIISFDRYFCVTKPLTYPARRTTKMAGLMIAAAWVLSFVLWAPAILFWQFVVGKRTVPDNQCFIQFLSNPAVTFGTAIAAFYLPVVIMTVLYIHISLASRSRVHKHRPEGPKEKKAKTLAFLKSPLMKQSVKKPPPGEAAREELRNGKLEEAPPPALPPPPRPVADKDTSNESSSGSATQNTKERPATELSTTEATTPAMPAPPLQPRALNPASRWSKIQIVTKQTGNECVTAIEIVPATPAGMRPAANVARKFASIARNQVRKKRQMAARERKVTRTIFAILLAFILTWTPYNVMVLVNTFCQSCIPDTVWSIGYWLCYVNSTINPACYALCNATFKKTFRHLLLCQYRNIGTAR

[4] = system: m2 muscarinic; conditions: Baumgold et al., Eur. J. Pharmacol., 251 (1994) 315-317; cited from earlier work

SMILES | m1/m2 (Ki ratio) [1] | m4/m2 (Ki ratio) [1] | further results
COc1ccc(S(=O)(=O)c2ccc3c(c2)CCC3N2CCN(C3CCCCC3)C[C@H]2C)cc1 (single isomer, unassigned) [Compound 14] | 18.4 | 2.6 | m1/m2 and m4/m2 ratios, in words [1]: useful values of the m1/m2 and m4/m2 ratios
c1cnc(Oc2ccc3c(c2)CCCCC3N2CCN(C3CCCCC3)CC2)nc1 (stereo not shown) [Compound 8] | 3.3 | 0.9 | Ki [2]: 88 nM; Ki ([1]; 3H-QNB binding, CHO cell membranes, 25° C., 90 minutes): 27 nM; Ki [3]: 23 nM
COc1ccc(S(=O)(=O)c2ccc3c(c2)CCC3N2CCC(N3CCCCC3)CC2)cc1 (stereo not shown) [Compound 13] | 4.0 | 2.0 | 
C[C@H]1CC[C@@H]2N(C1)C[C@H]1[C@@H]3C[C@H]4[C@@H](CC(=O)[C@H]5C[C@@H](Cl)CC[C@@]54C)[C@@H]3CC[C@H]1[C@]2(C)O [3-α-chloroimperialine] |  |  | m2 muscarinic antagonist selectivity, in words [4]: highly selective m2 muscarinic antagonist
Nc1ccc(Oc2ccc3c(c2)CCCC3N2CCN(C3CCCCC3)CC2)cc1 (stereo not shown) [Compound 7] | 4.0 | 0.8 | 
c1cnc(Oc2ccc3c(c2)CCCC3N2CCN(C3CCCCC3)CC2)nc1 (stereo not shown) [Compound 5, 4-Cyclohexyl-1-piperazinyl-[6-[(2-pyrimidinyl)oxy]]-1,2,3,4-tetrahydro-naphthalene] | 7.5 | 1.6 | 
c1cnc(Oc2ccc3c(c2)CCC3N2CCN(C3CCCCC3)CC2)nc1 (stereo not shown) [Compound 9] | 7.7 |  | m1/m2 and m4/m2 ratios, in words [1]: useful values of the m1/m2 and m4/m2 ratios
c1cnc(Oc2ccc3c(c2)CCC3N2CCN(C3CCCCC3)CC2)nc1 (single isomer, unassigned) [Compound 10] | 13.2 | 1.5 | m1/m2 and m4/m2 ratios, in words [1]: useful values of the m1/m2 and m4/m2 ratios
O=[N+]([O-])c1ccc(Oc2ccc3c(c2)CCCC3N2CCN(C3CCCCC3)CC2)cc1 (stereo not shown) [Compound 6] | 6.6 | 0.8 | 
COc1ccc(S(=O)(=O)c2ccc3c(c2)CCC3N2CCN(C3CCCCC3)C[C@H]2C)cc1 (single isomer, unassigned) [Compound 15] | 11.2 | 2.5 | m1/m2 and m4/m2 ratios, in words [1]: useful values of the m1/m2 and m4/m2 ratios
O=S(=O)(c1ccccc1)c1ccc2c(c1)CCC2N1CCN(CCO)CC1 (stereo not shown) [Compound 1] | 4.5 | 1.3 | 
CC(=O)Nc1ccc(Oc2ccc3c(c2)OCCC3N2CCN(C3CCCCC3)CC2)cc1 (stereo not shown) [Compound 4] | 1.0 | > 0.9 | 
c1cnc(Oc2ccc3c(c2)CC(CC2CCCCC2)C3N2CCN(C3CCCCC3)CC2)nc1 (stereo not shown) [Compound 12, 2-[[1-(4-Cyclohexyl-1-piperazinyl)-2-(cyclohexylmethyl)-2,3-dihydro-1H-inden-5-yl]oxy]pyrimidine] | 1.9 |  | 
O=[N+]([O-])c1ccc(Oc2ccc3c(c2)OCCC3N2CCN(C3CCCCC3)CC2)cc1 (stereo not shown) [Compound 2, 1-Cyclohexyl-4-[7-[(4-nitrophenyl)oxy]-chroman-4-yl]-piperazine] | 1.5 |  | 
Nc1ccc(Oc2ccc3c(c2)OCCC3N2CCN(C3CCCCC3)CC2)cc1 (stereo not shown) [Compound 3] | 0.6 | 0.3 | 
c1cnc(Oc2ccc3c(c2)CCC3N2CCN(C3CCCCC3)CC2)nc1 (single isomer, unassigned) [Compound 11] | 3.6 |  | 
